This is an account of results in paper PMC7408547, “Bivalent Inhibitor with Selectivity for Trimeric MMP-9 Amplifies Neutrophil Chemotaxis and Enables Functional Studies on MMP-9 Proteoforms” (Cells, 2020).

Like-named read-outs stand apart in the source and are kept apart here.

Format in all cases: biochemical
The target in assay [1] is T1, recombinant human MMP-9 trimers (Homo sapiens, UniProt P14780).
T1 construct: made in house; host or cells: Sf9 insect cells
The assay can be described thus: Gelatin degradation assay, recombinant MMP-9 trimers. The protocol:
(§1) Compounds 5 and 7 were synthesized as previously reported. Full-length human proMMP-9 was produced by recombinant expression in Sf9 insect cells and purified by gelatin-Sepharose chromatography as previously described. Stable full-length proMMP-9 monomers and trimers were separated by glycerol gradient ultracentrifugation as previously described. ProMMP-9 mixture and the separated monomers and trimers were activated by incubation with the catalytic domain of MMP-3 (cat. No. 444217, Merck Millipore, Darmstadt, Germany) as previously described. Activation of proMMP-9 was confirmed by a band shift of ±10 kDa, corresponding to the removal of the auto-inhibitory propeptide domain and by detection of gelatinolytic activity with a previously described gelatin degradation assay. MMP-9 monomers and trimers purified from human neutrophils were purchased (Cat. No. 444,231 and 444232, Sigma-Aldrich, St. Louis, MO, USA). Examples of sample purities and activations can be found in Supplementary Figure S1. Recombinant human proMMP-2 (CHO cell-derived), proMMP-3 (NS0 cell-derived), proMMP-7 (NS0 cell-derived) and proMMP-8 (NS0 cell-derived) were purchased from R & D systems (Minneapolis, MN, USA), dissolved in assay buffer (150 mM NaCl, 5 mM CaCl2, 0.01% Tween-20, 50 mM Tris, pH 7.4) to a concentration of 100 µg/mL and activated by incubation with 1 mM p-aminophenylmercuric acetate for, respectively, 1h, 6h, 2h and 1h. Activation of MMPs was confirmed by a band shift of approximately 10 kDa, corresponding to the removal of the propeptide domain. MMP-14/MT1-MMP (NS0 cell-derived) was also purchased from R & D systems (Minneapolis, MN, USA) and activated by incubation with recombinant human furin (cat. No. 1503-SE-010, R & D systems, Minneapolis, MO, USA) in activation buffer (50 mM Tris, 1 mM CaCl2, 0.5% Brij-35, pH 9) for 1.5 h and activity was tested in assay buffer (50 mM Tris, 3 mM CaCl2, 1 µM ZnCl2, pH 8.5). Active human neutrophil elastase (NE) was purchased from Abcam (Cambridge, UK) and for activity assays of NE the assay buffer was replaced by 200 mM Tris, pH 8.8. ADAM17/TACE (Sf 21 (baculovirus)-derived, R & D systems, Minneapolis, MO, USA) was diluted and evaluated in 25 mM Tris, 2.5 μM ZnCl2, 0.005% Brij-35, pH 9.0. All stocks of the compounds were evaluated for the presence of endotoxin using the EndoZyme II assay (Hyglos bioMérieux, Bernried am Starnberger See, Germany). Endotoxin levels in all concentrated stocks (2.5 mg/mL) were below the accepted limit of 0.5 EU/mL.
To determine the inhibition of gelatinolytic activity, we used a previously optimized gelatin degradation assay. Activated MMP-9, activated MMP-2, neutrophil elastase or supernatants of stimulated neutrophils, were incubated with different concentrations of inhibitors and incubated for 30 min at 37 °C. Next, dye-quenched gelatin (DQ™-gelatin, Invitrogen, Carlsbad, CA, USA) was added at a final concentration of 2.5 µg/mL and the increase in fluorescence over time was measured with the CLARIOstar microplate reader (BMG Labtech, Ortenberg, Germany). For other MMPs, the OmniMMP substrate peptide (Mca-PLGL-Dpa-AR-NH2, cat. no. BML-P126-0001, Enzo Life Sciences, Farmingdale, NY, USA) was used at a final concentration of 2.5 µg/mL. For ADAM17 the fluorogenic peptide Mca-PLAQAV-Dpa-RSSSR-NH2 (ES003, R & D systems, Minneapolis, MO, USA) and for neutrophil elastase the fluorogenic substrate MeOSuc-AAPV-AMC (cat. no. 324740, Merck Millipore, Darmstadt, Germany) were used. Proteolytic activity was determined by linear regression of the fluorescence curve and the percentage inhibition was calculated through comparison with the positive control (no inhibitors). When testing supernatants from human neutrophils, the assay was performed in the presence of 20 µM neutrophil elastase inhibitor (Elastase Inhibitor IV, Calbiochem, Darmstadt, Germany).

Assay [2] has as its target T2, neutrophil elastase (Homo sapiens, UniProt P08246).
T2 construct: Active human neutrophil elastase (NE) was purchased from Abcam; purchased Abcam
T2 sequence (P08246 30-267): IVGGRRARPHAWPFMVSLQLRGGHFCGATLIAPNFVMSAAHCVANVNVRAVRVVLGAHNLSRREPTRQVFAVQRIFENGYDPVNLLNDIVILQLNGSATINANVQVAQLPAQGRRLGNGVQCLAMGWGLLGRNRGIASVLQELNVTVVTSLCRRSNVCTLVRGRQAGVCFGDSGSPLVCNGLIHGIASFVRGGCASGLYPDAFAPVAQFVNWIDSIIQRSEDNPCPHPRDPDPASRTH
The assay can be described thus: Neutrophil elastase activity assay (fluorogenic elastase peptide and gelatin). As to conditions: fluorogenic elastase substrate and gelatin; tested up to an inhibitor concentration of 50 µM. The protocol:
(§2) Compounds 5 and 7 were synthesized as previously reported. Full-length human proMMP-9 was produced by recombinant expression in Sf9 insect cells and purified by gelatin-Sepharose chromatography as previously described. Stable full-length proMMP-9 monomers and trimers were separated by glycerol gradient ultracentrifugation as previously described. ProMMP-9 mixture and the separated monomers and trimers were activated by incubation with the catalytic domain of MMP-3 (cat. No. 444217, Merck Millipore, Darmstadt, Germany) as previously described. […] ADAM17/TACE (Sf 21 (baculovirus)-derived, R & D systems, Minneapolis, MO, USA) was diluted and evaluated in 25 mM Tris, 2.5 μM ZnCl2, 0.005% Brij-35, pH 9.0. All stocks of the compounds were evaluated for the presence of endotoxin using the EndoZyme II assay (Hyglos bioMérieux, Bernried am Starnberger See, Germany). […]
(§3) To determine the inhibition of gelatinolytic activity, we used a previously optimized gelatin degradation assay. […] Next, dye-quenched gelatin (DQ™-gelatin, Invitrogen, Carlsbad, CA, USA) was added at a final concentration of 2.5 µg/mL and the increase in fluorescence over time was measured with the CLARIOstar microplate reader (BMG Labtech, Ortenberg, Germany). […]

The target in assay [3] is T3, MMP-14/MT1-MMP (Homo sapiens, UniProt P50281).
T3 construct: purchased R & D systems; host or cells: NS0 cells
The experiment in a line: MMP-14 OmniMMP peptide assay. The protocol:
as §1, with “Active human neutrophil elastase (NE) was purchased from Abcam (Cambridge, UK) and for activity assays of NE the assay buffer was replaced by 200 mM Tris, pH 8.8.” left out, “Endotoxin levels in all concentrated stocks (2.5 mg/mL) were below the accepted limit of 0.5 EU/mL.” left out
To determine the inhibition of gelatinolytic activity, we used a previously optimized gelatin degradation assay. […] Next, dye-quenched gelatin (DQ™-gelatin, Invitrogen, Carlsbad, CA, USA) was added at a final concentration of 2.5 µg/mL and the increase in fluorescence over time was measured with the CLARIOstar microplate reader (BMG Labtech, Ortenberg, Germany). […] Proteolytic activity was determined by linear regression of the fluorescence curve and the percentage inhibition was calculated through comparison with the positive control (no inhibitors). […]

For assay [4], the target named is T4, MMP-7 (Homo sapiens, UniProt P09237).
T4 construct: purchased R & D systems; host or cells: NS0 cells
T4 sequence (P09237 95-267): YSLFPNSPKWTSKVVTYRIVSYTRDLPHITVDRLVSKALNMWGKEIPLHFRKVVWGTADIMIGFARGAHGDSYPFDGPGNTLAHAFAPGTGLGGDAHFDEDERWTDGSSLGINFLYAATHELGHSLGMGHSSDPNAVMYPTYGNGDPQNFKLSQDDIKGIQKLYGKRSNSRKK
The assay can be described thus: MMP-7 OmniMMP peptide assay. As to conditions: OmniMMP substrate peptide. As to the method:
as §2, §3

Assay [5] addresses T5, MMP-2 (Homo sapiens, UniProt P08253).
T5 construct: purchased R & D systems; host or cells: CHO cells
T5 sequence (P08253 110-660): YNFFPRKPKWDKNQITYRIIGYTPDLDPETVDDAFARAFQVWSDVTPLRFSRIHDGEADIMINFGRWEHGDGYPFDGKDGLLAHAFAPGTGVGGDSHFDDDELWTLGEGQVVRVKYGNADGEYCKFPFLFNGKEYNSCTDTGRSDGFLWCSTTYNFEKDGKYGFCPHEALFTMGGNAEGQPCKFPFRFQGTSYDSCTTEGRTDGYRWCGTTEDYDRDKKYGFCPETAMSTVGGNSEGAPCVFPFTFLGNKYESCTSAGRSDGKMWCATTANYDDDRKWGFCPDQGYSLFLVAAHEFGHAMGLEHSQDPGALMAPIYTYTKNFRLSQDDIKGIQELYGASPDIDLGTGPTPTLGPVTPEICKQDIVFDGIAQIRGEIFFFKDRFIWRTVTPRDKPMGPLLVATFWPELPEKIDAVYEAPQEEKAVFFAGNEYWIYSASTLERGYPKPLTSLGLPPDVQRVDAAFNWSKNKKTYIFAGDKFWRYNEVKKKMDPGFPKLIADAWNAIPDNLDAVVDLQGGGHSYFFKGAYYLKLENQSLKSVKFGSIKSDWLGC
The experiment in a line: MMP-2 gelatin degradation assay. As to conditions: gelatin substrate. As to the method:
as §2, §3

Where [6] appears, read: recombinant human MMP-9 (Sf9) tri, gelatin degradation.

T1 sequence (P14780 107-707 limits assumed): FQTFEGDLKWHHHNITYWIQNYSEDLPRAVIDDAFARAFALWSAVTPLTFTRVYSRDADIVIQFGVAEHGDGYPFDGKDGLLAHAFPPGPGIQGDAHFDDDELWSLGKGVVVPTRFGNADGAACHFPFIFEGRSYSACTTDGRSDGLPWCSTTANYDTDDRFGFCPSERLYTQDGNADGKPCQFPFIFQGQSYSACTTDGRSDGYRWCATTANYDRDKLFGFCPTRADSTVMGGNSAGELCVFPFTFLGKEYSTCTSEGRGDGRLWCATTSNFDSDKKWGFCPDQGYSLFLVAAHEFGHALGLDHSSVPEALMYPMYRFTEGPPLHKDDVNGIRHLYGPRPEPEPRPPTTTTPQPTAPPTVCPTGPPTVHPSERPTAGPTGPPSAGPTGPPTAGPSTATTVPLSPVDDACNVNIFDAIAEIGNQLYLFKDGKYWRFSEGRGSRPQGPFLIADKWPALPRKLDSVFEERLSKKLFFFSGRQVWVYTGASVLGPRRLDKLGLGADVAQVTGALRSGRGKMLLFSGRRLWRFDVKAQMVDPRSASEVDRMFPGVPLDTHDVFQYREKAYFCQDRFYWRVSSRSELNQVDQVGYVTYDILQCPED

For orientation: IC25 means the concentration needed for an effect of 25%. In general, IC50 refers to the concentration that inhibits the measured activity by half. As a reminder, the IC75 is the concentration needed for an effect of 75%. Consider `CC(C)[C@H](C(=O)O)N(CCNC(=O)c1ccccc1)S(=O)(=O)c1ccc(-c2ccccc2)cc1` [Compound 5], for which, in assay [1] (setting [6]), the concentration for an effect of 25% (IC25) is listed as 526 nM. The IC50 in assay [1] (setting [6]) is 2250 nM; in assay [2] it was “no inhibition ^†”; in assay [3], above 1000 nM; in assay [3] (OmniMMP substrate peptide), 14800 nM; in assay [4], above 10000 nM; in assay [5], 1720 nM. Besides, in assay [1] (setting [6]), the IC75 amounted to 9660 nM.
On to `CC(C)[C@H](C(=O)O)N(CCNC(=O)c1cccc(C(=O)NCCN([C@@H](C(=O)O)C(C)C)S(=O)(=O)c2ccc(-c3ccccc3)cc2)c1)S(=O)(=O)c1ccc(-c2ccccc2)cc1` [Compound 7], for which the IC50 in assay [1] (setting [6]) is 0.18 nM; in assay [2], “no inhibition ^†”; in assay [3], above 1000 nM; in assay [3] (OmniMMP substrate peptide), 1080 nM; in assay [4] it was above 10000 nM; in assay [5], 4.8 nM. Moreover, the concentration for an effect of 75% (IC75) in assay [1] (setting [6]) is 18 nM. The “fold more potent at inhibiting gelatinolysis by trimeric versus monomeric MMP-9” value in assay [1] (recombinant human MMP-9, gelatin substrate) is on record as “over 1000 fold”.
